Laboratory results published in patent publication US8778975B2, “Helicobacter pylori eradicating agent having inhibitory activity on gastric acid secretion” (Link Geonomics, Inc., priority 2006, dated 2014).
Values after ≈ are worked out from the molar mass of the structure shown. Like-named read-outs stand apart in the source and are kept apart here.

How the values were obtained:
[1] = tested on: Helicobacter pylori standard strains ATCC 43504, ATCC 43629, ATCC 43570 and clinically separated strains; test: Anti-Helicobacter pylori activity (MIC), standard and clinically separated strains, Pharmacological Test Example 2; format: cell-based
Description: For the bacterium Helicobacter pylori, standard strains ATCC 43504, ATCC 43629 and ATCC 43570 were used to perform in vitro tests in Columbia agar medium. The bacteria were cultured at 37° C. and pH 7.0 for 3 days. On the 4th day, the minimum growth inhibitory concentration (MIC, μg/ml) was determined. Each of the specimens was dissolved in a 1% DMSO solution. Furthermore, amoxicillin and clarithromycin were used as control drugs of antibacterial substance. Further, the compound described in the article of Thomas C. Kuehler (J. Med.

[2] = tested on: Enterococcus faecalis (VRE, ATCC 51575); test: Antibacterial test (MIC), Gram-positive bacteria; format: cell-based
Source text: (§1) As for the Gram-negative bacteria, E. coli (ATCC 10536, ATCC 25922), Klebsiella pneumonia (ATCC 10031), Proteus vulgaris (ATCC 13315), Pseudomonas aeruginosa (ATCC 9027), and Salmonella typhimurium (ATCC 13311) were used, and as for the Gram-positive bacteria, Staphylococcus aureus, MRSA (ATCC 33591), Staphylococcus epidermidis (ATCC 12228), Streptococcus pneumonia (ATCC 6301), Mycobacterium ranae (ATCC 110), and Enterococcus faecalis (VRE, ATCC 51575) were used. The various bacteria were cultured at 37° C. for 20 to 48 hours by conventional methods, and the minimum growth inhibitory concentration (MIC, μg/ml) was determined. Each of the specimens was dissolved in a 1% DMSO solution. Furthermore, amoxicillin, clarithromycin and gentamycin were used as control drugs of antibacterial substance.

[3] = tested on: Staphylococcus epidermidis (ATCC 12228); test: Antibacterial test (MIC), Gram-positive bacteria; format: cell-based; conditions: ATCC12228, read-out: MIC
Source text: as §1

[4] = tested on: Mycobacterium ranae (ATCC 110); test: Antibacterial test (MIC), Gram-positive bacteria; format: cell-based; conditions: ATCC110, read-out: MIC
Source text: as §1

[5] = tested on: Streptococcus pneumonia (ATCC 6301); test: Antibacterial test (MIC), Gram-positive bacteria; format: cell-based; conditions: Streptococcus pneumoniae, ATCC6301
Source text: as §1

[6] = tested on: Staphylococcus aureus, MRSA (ATCC 33591); test: Antibacterial test (MIC), Gram-positive bacteria; format: cell-based; conditions: read-out: MIC
Source text: as §1

[7] = tested on: Escherichia coli (ATCC 10536); test: Antibacterial test (MIC), Gram-negative bacteria; format: cell-based; conditions: ATCC10536, read-out: MIC
Source text: as §1

[8] = tested on: Klebsiella pneumonia (ATCC 10031); test: Antibacterial test (MIC), Gram-negative bacteria; format: cell-based; conditions: Klebsiella pneumoniae, ATCC10031, read-out: MIC
Source text: as §1

[9] = tested on: Salmonella typhimurium (ATCC 13311); test: Antibacterial test (MIC), Gram-negative bacteria; format: cell-based; conditions: Salmonella enterica, read-out: MIC
Source text: as §1

[10] = tested on: Pseudomonas aeruginosa (ATCC 9027); test: Antibacterial test (MIC), Gram-negative bacteria; format: cell-based; conditions: ATCC9027, read-out: MIC
Source text: as §1

[11] = tested on: Proteus vulgaris (ATCC 13315); test: Antibacterial test (MIC), Gram-negative bacteria; format: cell-based; conditions: ATCC13315, read-out: MIC
Source text: as §1

[12] = tested on: Escherichia coli (ATCC 25922); test: Antibacterial test (MIC), Gram-negative bacteria; format: cell-based; conditions: ATCC25922, read-out: MIC
Source text: as §1

[13] = Stability test in acidic hydrochloric acid solution (pH 2), residual ratio by HPLC; format: physicochemical; conditions: for Residual ratio at pH 2: pH 2 HCl, 37° C.; for Stability in acid (residual ratio at pH = 2: %): Table 8 summary, time not stated
Description: A test for the stability of thioether compounds (hereinafter, referred to SH-form) and sulfoxide compounds (hereinafter, referred to SO-form) at pH 2.0 was carried out. (Method) Each of the specimens produced in Examples 1 to 3 and Reference Examples 6 to 8 (sulfinyl products of Examples 1 to 3) was maintained in a solution adjusted to pH 2 with 0.5 or 1.0 mmol/L HCl (37° C.) for a predetermined time period. Subsequently, the solution was adjusted to pH 8 with triethylamine, and then an HPLC analysis was performed to calculate the residual ratio.

[14] = tested on: clinically separated clarithromycin-resistant strains and amoxicillin-insensitive strains of Helicobacter pylori; test: Antibacterial potency (MIC) against clarithromycin-resistant and amoxicillin-insensitive strains, Pharmacological Test Example 3; format: cell-based; conditions: Helicobacter pylori, read-out: MIC
Description: A test was conducted on the antibacterial potency of the compounds of the present invention against the clarithromycin-resistant strains and amoxicillin-insensitive strains of the bacterium Helicobacter pylori.
A test was conducted on the antibacterial potency of the compounds of the present invention, using clinically separated clarithromycin-resistant strains and amoxicillin-insensitive strains of the bacterium Helicobacter pylori. For the respective strains, in vitro tests were performed in Columbia agar medium. Each of the specimens was dissolved in a 1% DMSO solution. The bacteria were cultured at 37° C. and pH 7.0 for 3 days, and on the 4th day, the minimum growth inhibitory concentration (MIC, μg/ml) was determined.

gastric acid secretion = test: Gastric acid secretion inhibiting action, pylorus ligation in rats; format: in vivo, SD rats; conditions: 30 mg/kg to the duodenum, 4 hours after pylorus ligation, average
Description: The gastric acid secretion inhibiting action of the compounds of the present invention was tested. A group of five animals of male SD rats (about 200 g) were used, and the medicaments were respectively dissolved in 0.5% CMC and were all administered to the duodenum respectively at 30 mg/kg. The rats were fasted overnight from the day before the administration of the test substance to the point of administration, and pylorus ligation was performed.

[15] = Clinically separated strain PT1045482
[16] = Clinically separated strain PT1045483
[17] = Clinically separated strain PT1045484

| SMILES | MIC [1, 15] [µg/mL] | MIC [1, 16] [µg/mL] | MIC [1, 17] [µg/mL] | MIC ([1]; Standard strain ATCC 43504) [µg/mL] | MIC ([1]; Standard strain ATCC 43570) [µg/mL] | MIC ([1]; Standard strain ATCC 43629) [µg/mL] | MIC [2] [µg/mL] | MIC [3] [µg/mL] | MIC [4] [µg/mL] | MIC [5] [µg/mL] | MIC [6] [µg/mL] | MIC [7] [µg/mL] | MIC [8] [µg/mL] | MIC [9] [µg/mL] | MIC [10] [µg/mL] | MIC [11] [µg/mL] | MIC [12] [µg/mL] | Residual ratio at pH 2 ([13]; 0 min) [%] | Residual ratio at pH 2 ([13]; 30 min) [%] | Residual ratio at pH 2 ([13]; 2 hours) [%] | also measured |
| --- | --- | --- | --- | --- | --- | --- | --- | --- | --- | --- | --- | --- | --- | --- | --- | --- | --- | --- | --- | --- | --- |
| CCCCCOc1ccnc(CSc2nc3ccccc3[nH]2)c1C [Example 1, 2-[(4-n-pentyloxy-3-methylpyridin-2-yl)-methylthio]-1H-benzimidazole] | 0.1 (≈ 0.293 µM) | 0.06 (≈ 0.176 µM) | 0.06 (≈ 0.176 µM) | 0.1 (≈ 0.293 µM) | < 0.015 | 0.06 (≈ 0.176 µM) | > 100 | > 100 | > 100 | > 100 | > 100 | > 100 | > 100 | > 100 | > 100 | > 100 | > 100 | 100 | 100 | 100 | Stability in acid (residual ratio at pH = 2: %) [13]: 100%; MIC ([14]; AMO-insensitive strain NO. 1): 0.06 µg/mL (≈ 0.176 µM); MIC ([14]; AMO-insensitive strain NO. 2): 0.06 µg/mL (≈ 0.176 µM); MIC ([14]; AMO-insensitive strain NO. 3): 0.06 µg/mL (≈ 0.176 µM); MIC ([14]; AMO-insensitive strain NO. 4): 0.06 µg/mL (≈ 0.176 µM); MIC ([14]; CAM-resistant strain NO. 1): 0.06 µg/mL (≈ 0.176 µM); MIC ([14]; CAM-resistant strain NO. 2): 0.06 µg/mL (≈ 0.176 µM); MIC ([14]; CAM-resistant strain NO. 3): 0.06 µg/mL (≈ 0.176 µM); MIC ([14]; CAM-resistant strain NO. 4): 0.06 µg/mL (≈ 0.176 µM); Gastric acid secretion inhibiting action: Amount of gastric acid (gastric acid secretion): 57%; Gastric acid secretion inhibiting action: Amount of gastric acid secretion (gastric acid secretion): 82%; Gastric acid secretion inhibiting action: Total acidity (gastric acid secretion): 60% |
| CCCCCCOc1ccnc(CSc2nc3ccccc3[nH]2)c1C [Example 2, 2-[(4-n-hexyloxy-3-methylpyridin-2-yl)-methylthio]-1H-benzimidazole] | 0.1 (≈ 0.281 µM) | 0.1 (≈ 0.281 µM) | 0.1 (≈ 0.281 µM) | 0.1 (≈ 0.281 µM) | 0.03 (≈ 0.0844 µM) | 0.1 (≈ 0.281 µM) | > 100 | > 100 | > 100 | > 100 | > 100 | > 100 | > 100 | > 100 | > 100 | > 100 | > 100 | 100 | 100 | 100 | Stability in acid (residual ratio at pH = 2: %) [13]: 100%; MIC ([14]; AMO-insensitive strain NO. 1): 0.06 µg/mL (≈ 0.169 µM); MIC ([14]; AMO-insensitive strain NO. 2): 0.12 µg/mL (≈ 0.338 µM); MIC ([14]; AMO-insensitive strain NO. 3): 0.12 µg/mL (≈ 0.338 µM); MIC ([14]; AMO-insensitive strain NO. 4): 0.12 µg/mL (≈ 0.338 µM); MIC ([14]; CAM-resistant strain NO. 1): 0.06 µg/mL (≈ 0.169 µM); MIC ([14]; CAM-resistant strain NO. 2): 0.06 µg/mL (≈ 0.169 µM); MIC ([14]; CAM-resistant strain NO. 3): 0.06 µg/mL (≈ 0.169 µM); MIC ([14]; CAM-resistant strain NO. 4): 0.06 µg/mL (≈ 0.169 µM); Gastric acid secretion inhibiting action: Amount of gastric acid (gastric acid secretion): 44%; Gastric acid secretion inhibiting action: Amount of gastric acid secretion (gastric acid secretion): 65%; Gastric acid secretion inhibiting action: Total acidity (gastric acid secretion): 34% |
| CCCCCCCOc1ccnc(CSc2nc3ccccc3[nH]2)c1C [Example 3, 2-[(4-n-heptyloxy-3-methylpyridin-2-yl)-methylthio]-1H-benzimidazole] | 0.1 (≈ 0.271 µM) | 0.1 (≈ 0.271 µM) | 0.1 (≈ 0.271 µM) | 0.1 (≈ 0.271 µM) | 0.1 (≈ 0.271 µM) | 0.1 (≈ 0.271 µM) | > 100 | > 100 | > 100 | > 100 | > 100 | > 100 | > 100 | > 100 | > 100 | > 100 | > 100 | 100 | 100 | 100 | Stability in acid (residual ratio at pH = 2: %) [13]: 100%; MIC ([14]; AMO-insensitive strain NO. 1): 0.12 µg/mL (≈ 0.325 µM); MIC ([14]; AMO-insensitive strain NO. 2): 0.12 µg/mL (≈ 0.325 µM); MIC ([14]; AMO-insensitive strain NO. 3): 0.12 µg/mL (≈ 0.325 µM); MIC ([14]; AMO-insensitive strain NO. 4): 0.25 µg/mL (≈ 0.677 µM); MIC ([14]; CAM-resistant strain NO. 1): 0.1 µg/mL (≈ 0.271 µM); MIC ([14]; CAM-resistant strain NO. 2): 0.1 µg/mL (≈ 0.271 µM); MIC ([14]; CAM-resistant strain NO. 3): 0.1 µg/mL (≈ 0.271 µM); MIC ([14]; CAM-resistant strain NO. 4): 0.1 µg/mL (≈ 0.271 µM); Gastric acid secretion inhibiting action: Amount of gastric acid (gastric acid secretion): 44%; Gastric acid secretion inhibiting action: Amount of gastric acid secretion (gastric acid secretion): 70%; Gastric acid secretion inhibiting action: Total acidity (gastric acid secretion): 44% |
